In EP4610269A1, “UROKINASE PLASMINOGEN ACTIVATOR SURFACE RECEPTOR (UPAR) LIGANDS FOR DIAGNOSTIC OR THERAPEUTIC USE” (3B Pharmaceuticals GmbH, priority 2024, dated 2025):
Read-outs that look alike come from different tables or passages of the source. *1 amine or outer side, *2 acyl side, *3 side chain or, on linkers, in order; H or OH if unused. Where a SMILES comes first, the peptide text is derived from it. Bridges are numbered along the chain shown (N, C = ends). Side-chain parts run from the residue outwards. [ ]: non-standard residue; d: D form. The star is where a group is joined. X12 = N=c1ccc2c(-c3ccc(C(=O)NCCCOCCOCCOCCCN*)cc3C(=O)O)c3ccc(N)c(S(=O)(=O)O)c3oc-2c1S(=O)(=O)O; DOTA(Lu) = O=C1CN2CCN3CCN(CC(=O)*)CCN(CC2)CC(=O)[O][Lu]([O]1)[O]C(=O)C3; X11 = O=C(CCCC[C@@H]1SC[C@@H]2NC(=O)N[C@@H]21)NCCCOCCOCCOCCCN*; DOTA = O=C(O)CN1CCN(CC(=O)O)CCN(CC(=O)*)CCN(CC(=O)O)CC1; Pro(cis-4-F) = O=C(O)[C@@H]1C[C@H](F)CN1; Dopa = N[C@@H](Cc1ccc(O)c(O)c1)C(=O)O; Hyp = O=C(O)[C@@H]1C[C@@H](O)CN1; Pentanoyl(4-Me) = CC(C)CCC(=O)*; X10 = CC(C)C[C@@H](C(=O)*)N(C)C; Cit = NC(=O)NCCC[C@H](N)C(=O)O; Butoxycarbonyl = CCCCOC(=O)*; NMeK = CN[C@@H](CCCCN)C(=O)O; Phg = N[C@H](C(=O)O)c1ccccc1; Suc = O=C(CCC(=O)[*:2])[*:1]; Nva = CCC[C@H](N)C(=O)O; Pentanoyl = CCCCC(=O)*; Ahx = NCCCCCC(=O)O; βAla = NCCC(=O)O; Sar = CNCC(=O)O

Tests used:
[1] = target: T1, uPAR-expressing HEC-265 human endometrial adenocarcinoma cells (Homo sapiens, UniProt Q03405); assay: Competitive FACS binding assay; conditions: pIC50 category of FACS binding
T1 construct: Cell surface uPAR-expressing HEC-265 human endometrial adenocarcinoma cells; host or cells: HEC-265
T1 sequence (Q03405 23-335): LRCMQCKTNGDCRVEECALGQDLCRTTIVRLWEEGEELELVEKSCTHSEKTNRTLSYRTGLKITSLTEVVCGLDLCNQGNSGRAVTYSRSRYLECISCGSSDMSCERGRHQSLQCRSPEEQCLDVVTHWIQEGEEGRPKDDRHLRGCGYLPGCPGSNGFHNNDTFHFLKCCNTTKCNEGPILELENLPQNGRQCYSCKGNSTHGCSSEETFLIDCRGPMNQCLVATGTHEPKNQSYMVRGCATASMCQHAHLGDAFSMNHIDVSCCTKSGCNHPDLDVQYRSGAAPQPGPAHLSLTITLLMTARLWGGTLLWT
Experimental: In order to determine binding of compounds according to the present invention to uPAR-expressing cells, a competitive FACS binding assay was established.
Cell surface uPAR-expressing HEC-265 human endometrial adenocarcinoma cells (Japanese Collection of Research Bioresources, #JCRB1142) were cultured in MEM Eagle with stable glutamine (Pan Biotech, #P04-09500) including 15% fetal bovine serum (Pan Biotech, #P30-3306) and 100 U/ml penicillin and 100 µg/mL streptomycin (Pan Biotech, #P06-07100). Cells were detached with Cell Dissociation Buffer (Thermo Scientific, #13151014) and washed in FACS buffer (PBS (Pan Biotech, #P04-36500) including 1% BSA (SeraCare, #AP-4510-80). Cells were diluted in FACS buffer to a final concentration of 500.000 cells per ml and 200 µl of the cell suspension are transferred to a u-shaped non-binding 96-well plate (Greiner Bio-One, #650901).
For IC50 determination, cells were incubated with 10 nM Bio--Ttds--Ttds--Ttds--Ttds-D-Cha-FsrYLWS-NH2) in the presence of increasing concentrations of non-labeled test compounds at 4°C for 1 hour. Cells were washed twice in FACS buffer. An additional incubation step with 1 µg/mL APC-Streptavidin (Miltenyi; #130-106-791) in 50 µL FACS buffer for 30 minutes on ice was performed followed by two washes with FACS buffer. Cells were resuspended in 200 µl FACS buffer and analyzed in an Attune NxT flow cytometer. Median fluorescence intensities (APC channel) were calculated by Attune NxT software and plotted against peptide concentrations. Four parameter logistic (4PL) curve fitting and pIC50 calculations were performed using ActivityBase software.

[2] = target: T2, human uPAR (uPAR-Fc) (Homo sapiens, UniProt Q03405); assay: Surface plasmon resonance (SPR) assay, single cycle kinetics; assay type: binding
T2 construct: comprising amino acids Leu23-Arg303 according to UniProt entry Q03405.1; purchased R&D Systems 10378-UK-100
T2 sequence (Q03405 23-303): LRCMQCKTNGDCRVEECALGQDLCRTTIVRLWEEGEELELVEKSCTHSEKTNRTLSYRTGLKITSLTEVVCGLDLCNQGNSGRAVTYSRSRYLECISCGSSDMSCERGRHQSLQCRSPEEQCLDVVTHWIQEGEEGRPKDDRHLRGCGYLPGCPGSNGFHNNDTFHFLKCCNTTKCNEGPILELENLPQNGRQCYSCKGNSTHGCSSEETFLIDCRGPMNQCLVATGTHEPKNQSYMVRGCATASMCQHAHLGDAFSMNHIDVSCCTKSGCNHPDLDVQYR
Experimental: Surface plasmon resonance (SPR) is an optical technique used to measure molecular interactions in real time. SPR occur when plane-polarized light hits a metal film under total internal reflection conditions. SPR signal is directly dependent on the refractive index of the medium on the sensor chip. In an SPR experiment, one molecule (i.e. uPAR) is immobilized on a sensor chip and binding to a second molecule (i.e. test compounds) is measured under flow. The binding of the compound on the surface changes the refractive index. In responses the reflection angle changes as compounds bind and dissociate on the immobilized protein on the surface. This response is measured in resonance units (RU). The RUs are proportional to the number of molecules bound to the surface. […] Kinetic binding constants and equilibrium binding constants can be derived from the sensorgrams.
Surface plasmon resonance (SPR) studies were performed using a Biacore™ T200 or S200 SPR system (Cytiva, formerly GE Life Sciences) to assess binding of compounds to recombinant uPAR protein.
In this example recombinant protein comprising the extracellular domains of human uPAR (uPAR-Fc, R&D Systems, CAT 10378-UK-100, comprising amino acids Leu23-Arg303 according to UniProt entry Q03405.1 and Fc region of human IgG1 at the C-terminus) was immobilized on a Protein A-Chip (Cytiva, CAT 29127555) according to the supplier's instructions. uPAR-Fc was diluted in Running Buffer (10 mM HEPES, 150 mM NaCl, 50 µM EDTA, 0.1% DMSO, 0.05% Tween-20, pH 7.4) to a final concentration of 100 nM and then flushed over the Protein A-Chip to immobilized ~2000 RUs.
Stock solutions of test compounds were prepared by dissolving each compound in DMSO. DMSO stock solution were diluted 1: 1000 in Running Buffer without DMSO. Further sequential dilutions were made with Running Buffer containing 0.1% DMSO. SPR binding analyses were performed in Single Cycle Kinetic (SCK) mode at 25°C. Flow cell without immobilized uPAR-Fc served as reference flow cell. The chip was regenerated with 10 mM Glycine, pH 1,5 to remove the uPAR-Fc from the chip surface after each SCK run. After every three SCK measurements, a blank run with Running Buffer instead of test compound was included to correct for baseline drifts (double reference substraction method). Table 11: SPR protocol steps for SCK with uPAR-Fc immobilized on a Protein A-Chip.
For each test compound, SPR raw data sensorgrams were recorded using the Biacore™ T200 or S200 control software. Sensorgrams were processed and analyzed with the Biacore™ Insight Evaluation software. […] The reference subtracted sensorgram for each test compound was further corrected for baseline drift by subtracting the sensorgram of a reference subtracted blank run (Running Buffer only). The dissociation constant (KD) was calculated from the double reference subtracted sensorgrams using the 1:1 Langmuir binding model. The pKD value (negative decadic logarithm of dissociation constant) was calculated using Microsoft Excel.

[3] = pKD category for uPAR SPR activity assay, uPAR-Fc on Protein A-Chip, 25°C, read-out: pKD CAT (converted)
[4] = pKD category for uPAR SPR activity assay, uPAR-Fc on Protein A-Chip, single cycle kinetics, 25°C, read-out: pKD CAT (converted)

| Compound | IC50 [1] [nM] | Kd [2, 3] [nM] | also measured |
| --- | --- | --- | --- |
| CCCCOC(=O)N[C@H]1CSSC[C@@H](C(=O)NCCC(=O)O)NC(=O)[C@H](CCC)NC(=O)[C@H]([C@@H](C)CC)NC(=O)[C@@H]2C[C@@H](O)CN2C(=O)[C@@H]2C[C@H](F)CN2C(=O)[C@H](Cc2ccccc2)NC(=O)[C@H](Cc2ccc(O)cc2)NC(=O)[C@H](CCCCNC(=O)CN2CCN(CC(=O)O)CCN(CC(=O)O)CCN(CC(=O)O)CC2)NC(=O)[C@H]([C@@H](C)O)NC1=O [UPAR-127, Butoc-[Cys-Thr-Lys(DOTA)-Tyr-Phe-4Cfp-Hyp-Ile-Nva-Cys]-Bal-OH] (Butoxycarbonyl-CTK(DOTA)YF[Pro(cis-4-F)][Hyp]I[Nva]C[βAla]-OH; disulfide 1-10) | ≤ 10 | 1.58 to 10 |  |
| CCCCOC(=O)N[C@H]1CSSC[C@@H](C(N)=O)NC(=O)[C@H](CCC)NC(=O)[C@H]([C@@H](C)CC)NC(=O)[C@@H]2C[C@@H](O)CN2C(=O)[C@@H]2C[C@@H](O)CN2C(=O)[C@H](Cc2ccccc2)NC(=O)[C@H](Cc2ccc(O)cc2)NC(=O)[C@H](CCCCNC(=O)CN2CCN(CC(=O)O)CCN(CC(=O)O)CCN(CC(=O)O)CC2)NC(=O)[C@H]([C@@H](C)O)NC1=O [UPAR-128, Butoc-[Cys-Thr-Lys(DOTA)-Tyr-Phe-Hyp-Hyp-Ile-Nva-Cys]-NH2] (Butoxycarbonyl-CTK(DOTA)YF[Hyp][Hyp]I[Nva]C-NH2; disulfide 1-10) | ≤ 10 | < 1.58 |  |
| CC[C@H](C)[C@@H]1NC(=O)[C@@H](C)NC(=O)[C@@H]2CCCN2C(=O)[C@H](Cc2ccccc2)NC(=O)[C@H](Cc2ccc(O)cc2)NC(=O)[C@H](CCC(N)=O)NC(=O)[C@@H](CCCCNC(=O)CN2CCN(CC(=O)O)CCN(CC(=O)O)CCN(CC(=O)O)CC2)NC(=O)[C@@H](NC(=O)CCC(C)C)CSSC[C@@H](C(N)=O)NC(=O)[C@H](CC(C)C)NC1=O [UPAR-130, iHex-[Cys-lys(DOTA)-Gln-Tyr-Phe-Pro-ala-Ile-Leu-Cys]-NH2] ({Pentanoyl(4-Me)}-C[dK](DOTA)QYFP[dA]ILC-NH2; disulfide 1-10) | ≥ 126 | > 100 |  |
| CC[C@H](C)[C@@H]1NC(=O)[C@@H](C)NC(=O)[C@@H]2CCCN2C(=O)[C@H](Cc2ccccc2)NC(=O)[C@H](Cc2ccc(O)cc2)NC(=O)[C@H](CCC(N)=O)NC(=O)[C@H](CCCNC(N)=O)NC(=O)[C@@H](NC(=O)CCC(C)C)CSSC[C@@H](C(=O)O)NC(=O)[C@H](CC(C)C)NC1=O [UPAR-131, iHex-[Cys-Cit-Gln-Tyr-Phe-Pro-ala-Ile-Leu-Cys]-OH] ({Pentanoyl(4-Me)}-C[Cit]QYFP[dA]ILC-OH; disulfide 1-10) | ≥ 126 | > 100 |  |
| CCCCC(=O)N[C@H]1CSSC[C@@H](C(N)=O)NC(=O)[C@H](CCC)NC(=O)[C@H]([C@@H](C)CC)NC(=O)[C@H](CCCCN)N(C)C(=O)[C@@H]2CCCN2C(=O)[C@H](Cc2ccccc2)NC(=O)[C@H](Cc2ccc(O)cc2)NC(=O)[C@H](CCCCNC(=O)CCC(=O)NCCCOCCOCCOCCCNC(=O)CCCC[C@@H]2SC[C@@H]3NC(=O)N[C@@H]32)NC(=O)[C@H](CCCNC(N)=O)NC1=O [UPAR-317, Pent-[Cys-Cit-Lys(Bio-Ttds)-Tyr-Phe-Pro-Nmk-Ile-Nva-Cys]-NH2] (Pentanoyl-C[Cit]K([Suc-X11])YFP[NMeK]I[Nva]C-NH2; disulfide 1-10) |  | 10 to 100 |  |
| CCCCOC(=O)N[C@H]1CSSC[C@@H](C(N)=O)NC(=O)[C@H](CCC)NC(=O)[C@H]([C@@H](C)CC)NC(=O)[C@@H]2C[C@@H](O)CN2C(=O)[C@@H]2C[C@H](F)CN2C(=O)[C@H](Cc2ccccc2)NC(=O)[C@H](Cc2ccc(O)c(O)c2)NC(=O)[C@H](CCCCNC(=O)CCC(=O)NCCCOCCOCCOCCCNC(=O)c2ccc(-c3c4ccc(=N)c(S(=O)(=O)O)c-4oc4c(S(=O)(=O)O)c(N)ccc34)c(C(=O)O)c2)NC(=O)[C@H]([C@@H](C)O)NC1=O [UPAR-479, Butoc-[Cys-Thr-Lys(AF488-Ttds)-Dopa-Phe-4Cfp-Hyp-Ile-Nva-Cys]-NH2] (Butoxycarbonyl-CTK([Suc-X12])[Dopa]F[Pro(cis-4-F)][Hyp]I[Nva]C-NH2; disulfide 1-10) |  |  | Kd [2]: < 1.58 nM |
| CCC[C@@H]1NC(=O)[C@H]([C@@H](C)CC)NC(=O)[C@@H]2C[C@@H](O)CN2C(=O)[C@@H]2CCCN2C(=O)[C@H](Cc2ccccc2)NC(=O)[C@H](Cc2ccc(O)cc2)NC(=O)[C@H](CCC(N)=O)NC(=O)[C@H](CCCNC(=N)N)NC(=O)[C@@H](NC(=O)[C@@H](NC(C)=O)c2ccccc2)CSSC[C@@H](C(N)=O)NC1=O [UPAR-486, Ac-Phg-[Cys-Arg-Gln-Tyr-Phe-Pro-Hyp-Ile-Nva-Cys]-NH2] (Ac-[Phg]CRQYFP[Hyp]I[Nva]C-NH2; disulfide 2-11) |  |  | Kd [2, 4]: < 1.58 nM |
| CCC[C@@H]1NC(=O)[C@H]([C@@H](C)CC)NC(=O)[C@@H]2C[C@@H](O)CN2C(=O)[C@@H]2CCCN2C(=O)[C@H](Cc2ccccc2)NC(=O)[C@H](Cc2ccc(O)cc2)NC(=O)[C@H](CCC(N)=O)NC(=O)[C@H](CCCNC(=N)N)NC(=O)[C@@H](NC(=O)[C@H](CC(C)C)N(C)C)CSSC[C@@H](C(N)=O)NC1=O [UPAR-487, Me-Nml-[Cys-Arg-Gln-Tyr-Phe-Pro-Hyp-Ile-Nva-Cys]-NH2] (X10-CRQYFP[Hyp]I[Nva]C-NH2; disulfide 1-10) |  |  | Kd [2, 4]: 1.58 to 10 nM |
| CCC[C@@H]1NC(=O)[C@H]([C@@H](C)CC)NC(=O)[C@@H]2C[C@@H](O)CN2C(=O)[C@@H]2CCCN2C(=O)[C@H](Cc2ccccc2)NC(=O)[C@H](Cc2ccc(O)cc2)NC(=O)[C@H](CCC(N)=O)NC(=O)[C@H](CCCNC(=N)N)NC(=O)[C@@H](NC(=O)[C@H](Cc2ccccc2)NC(C)=O)CSSC[C@@H](C(N)=O)NC1=O [UPAR-488, Ac-Phe-[Cys-Arg-Gln-Tyr-Phe-Pro-Hyp-Ile-Nva-Cys]-NH2] (Ac-FCRQYFP[Hyp]I[Nva]C-NH2; disulfide 2-11) |  |  | Kd [2, 4]: < 1.58 nM |
| LuDOTA-Ahx-Leu-[Cys-Arg-Gln-Tyr-Phe-Pro-ala-Ile-Leu-Cys]-NH2 ({DOTA(Lu)}-[Ahx]LCRQYFP[dA]ILC-NH2; disulfide 3-12; not fully specified; printed as LuDOTA-Ahx-Leu-[Cys-Arg-Gln-Tyr-Phe-Pro-ala-Ile-Leu-Cys]-NH₂; also: Lu(III) complexed by DOTA) [UPAR-170] |  |  | pIC50 CAT [1]: A (pIC50 values ≥8.0) |
| Pent-[Cys-Cit-Lys(LuDOTA)-Tyr-Phe-Pro-Nmg-Ile-Nva-Cys]-NH2 (Pentanoyl-C[Cit]K(DOTA(Lu))YFP[Sar]I[Nva]C-NH2; disulfide 1-10; not fully specified; also: Lu(III) complexed by DOTA) [UPAR-348] |  |  | pIC50 CAT [1]: A (pIC50 values ≥8.0) |
